In patent publication US20110091945A1, “METHODS OF INCREASING BIOMASS PRODUCTIVITY, LIPID INDUCTION, AND CONTROLLING METABOLITES IN ALGAE FOR PRODUCTION OF BIOFUELS USING BIOCHEMICAL STIMULANTS” (priority 2009, published 2011):

Key:
[1] = test system: Chlorella sorokiniana; experiment: Malathion growth study: chlorophyll fluorescence kinetics by PAM; format: cell-based, Chlorella sorokiniana (UTEX 2805); settings: day 12; for Fv/Fm (maximum photosynthetic efficiency of PSII): control 0.672
Procedure: A 2% neutral lipid corn standard supplied by Ankom was used as an analytical standard. Carbon, hydrogen, nitrogen, and sulfur percentages in the biomass were estimated using a LECO CHNS932 elemental analyzer. • Chlorophyll fluorescence kinetics by PAM: The Pulse-Amplitude-Modulation Fluorometer (Mini-PAM, WALZ GmBH, Effeltrich, Germany) used for chlorophyll a fluorescence measurements were performed in real-time using the mini-PAM's internal halogen light as the actinic light source for fluorescence measurements of maximum photosynthetic yield, effective photosynthetic yield (PSII), electron transfer rate (ETR), photosynthetic quenching (qP) and non photochemical quenching (NPQ). The algal samples were dark adapted for one hour prior to the analysis. A small quantity (2.5 mL) of dark adopted sample in a 10 mm path length cuvette was placed in a dark chamber. The PAM fluorometer was connected to the sample via a fiber optic bundle. After stabilization of the auto fluorescence, the probing light beam was turned on and the baseline fluorescence (Fo) was recorded. A single saturating flash (1 s, 8,000 μmol m^−2 s^−1) was then applied to reach maximal fluorescence (Fm). The maximum photosynthetic efficiency of PSII was estimated as in the following equation for the dark adopted culture:
The induction kinetics were initiated by turning on the actinic light source (100 μmol m^−2 s^−1). During the induction curve under actinic light (AL) exposure, saturating light pulses (1 s; 8,000 μmol m^−2 s^−1) were given every 20 seconds to determine the effective quantum yield (Φ PSII), electron transfer rates (ETR), photochemical (qP) and non-photochemical (NPQ) quenching. The qP value was determined by the PAM data analysis software, which uses Fo as opposed to Fo′ in the equation providing a estimate of qP rather than an absolute measurement using far-red light exposure. These tests were done in duplicates.
• Test strain: Chlorella sorokiniana (UTEX 2805) was obtained from UTEX Culture Collections and maintained in BG11 medium (Stanier et al., (1971) Bacteria Rev. 35: 171-205, incorporated herein in its entirety). The pH of culture medium was adjusted to 7.5±0.2 before inoculation and the alga was maintained in a temperature controlled growth chamber at 25±1° C. and 100±10 μmol m^−2 s^−1 light intensity with 12/12 h L/D cycle provided by cool white fluorescent (6500 K) T-8 bulbs. • Pesticide: A twelve day time-scale growth study was conducted to evaluate the effect of pesticide toxicity on algal growth and metabolism. The pesticide malathion (Spectracide, 50% v/v) was used and added to fresh BG11 medium to obtain final concentrations of 70, 140, 280 and 560 mg of malathion L^−1 for the treatments. […] After sterilization, C. sorokiniana was added as inoculum to obtain an initial biomass concentration of 0.075 g L^−1 in all the treatments in triplicates. The cultures were incubated in the growth chamber as explained above. For each sampling period, three randomly chosen flasks of each treatment were removed and then refrigerated at 4° C. until further analysis.

[2] = test system: Nostoc calcicola; settings: cited from earlier work

CCOC(=O)CC(SP(=S)(OC)OC)C(=O)OCC (centres unmarked) [malathion, 2-(dimethoxyphosphinothioylthio)butanedioic acid diethyl ester]
effective photosynthetic yield, higher over the control ([1]; 70 mg malathion L^−1): about 1.2 times | electron transfer rate, higher over the control ([1]; 70 mg malathion L^−1): about 1.2 times | non-photochemical quenching (NPQ) versus control, in words ([1]; 70 mg malathion L^−1): comparable with the control | photochemical quenching, higher over the control ([1]; 70 mg malathion L^−1): about 1.2 times | Fv/Fm (maximum photosynthetic efficiency of PSII) ([1]; 70 mg malathion L^−1): 0.671 | effective photosynthetic yield, higher over the control ([1]; 140 mg malathion L^−1): about 1.2 times | electron transfer rate, higher over the control ([1]; 140 mg malathion L^−1): about 1.2 times | non-photochemical quenching (NPQ), less than the control ([1]; 140 mg malathion L^−1): 18% | photochemical quenching, higher over the control ([1]; 140 mg malathion L^−1): about 1.2 times | Fv/Fm (maximum photosynthetic efficiency of PSII) ([1]; 140 mg malathion L^−1): 0.641 | concentration above which growth was reduced [2]: above 500 mg L^−1
